Test results: patent US6841530B2, “Semi-synthetic studies toward didemnin analogues” (The Board of Trustees of the University of Illinois, priority 1996, dated 2005)
Values after ≈ are worked out from the molar mass of the structure shown. Starred links: 1 amine or outer side, 2 acyl side, 3 side chain; linkers in the order of their positions; H or OH if unused. Positions of bridges follow the written chain, without caps; N, C: chain ends. Non-standard residues stand in square brackets, D forms with d. Residues, ends and D or L forms follow the SMILES beside them. *: point of attachment. X1 = CC[C@H](C)[C@@H](N[*:1])[C@@H](O)CC(=O)O[C@H](C(=O)[C@H](C)C(=O)[*:2])C(C)C; NMeY = CN[C@@H](Cc1ccc(O)cc1)C(=O)O; dNMeL = CN[C@H](CC(C)C)C(=O)O; pGlu = O=C1CC[C@@H](C(=O)O)N1; Pyruvoyl = CC(=O)C(=O)*; Cbz = O=C(OCc1ccccc1)*; Boc = CC(C)(C)OC(=O)*; Lac = C[C@H](O)C(=O)O

Experiments:
[1] = Cytotoxicity of didemnins (Table II); format: cell-based; conditions: for IC50: cytotoxicity
HSV = assay: Antiviral activities of didemnins, HSV/CV-1; format: cell-based; set-up: key: +++ = complete inhibition; ++ = strong inhibition; + = moderate inhibition; − = no inhibition
CV-1 = assay: Cytotoxicity score in the HSV/CV-1 antiviral assay; conditions: scale 0 (least toxic) to 16 (toxic)

SMILES | Inhibition (%) ([1]; Dose 0.25 ng/mL) | Inhibition (%) ([1]; Dose 2.5 ng/mL) | Inhibition (%) ([1]; Dose 25 ng/mL) | Inhibition (%) ([1]; Dose 250 ng/mL) | IC50 [1] [ng/mL] | Activity (HSV; 10 ng/mL) | Activity (HSV; 20 ng/mL) | Activity (HSV; 50 ng/mL) | Activity (HSV; 100 ng/mL) | Cytotoxocity (CV-1; 10 ng/mL) | Cytotoxocity (CV-1; 20 ng/mL) | Cytotoxocity (CV-1; 50 ng/mL) | Cytotoxocity (CV-1; 100 ng/mL)
CC[C@H](C)[C@H]1NC(=O)[C@@H](NC(=O)[C@@H](CC(C)C)N(C)C(=O)[C@@H]2CCCN2)[C@@H](C)OC(=O)[C@H](Cc2ccc(OC)cc2)N(C)C(=O)[C@@H]2CCCN2C(=O)[C@H](CC(C)C)NC(=O)[C@@H](C)C(=O)[C@H](C(C)C)OC(=O)C[C@@H]1O [Prolyl-didemnin A (43), prolyl-didemnin A] (H-P[dNMeL]T[X1]LP[NMeY](Me); ester 3-C) | 30 | 40 | 99 | 100 | 12 (≈ 11.5 nM) |  |  |  |  |  |  |  | 
CC[C@H](C)[C@H]1NC(=O)[C@@H](NC(=O)[C@@H](CC(C)C)N(C)C(=O)[C@@H]2CCCN2C(=O)OC(C)(C)C)[C@@H](C)OC(=O)[C@H](Cc2ccc(OC)cc2)N(C)C(=O)[C@@H]2CCCN2C(=O)[C@H](CC(C)C)NC(=O)[C@@H](C)C(=O)[C@H](C(C)C)OC(=O)C[C@@H]1O [Boc-Pro-didemnin A (158), Boc-L-prolyl-didemnin A] (Boc-P[dNMeL]T[X1]LP[NMeY](Me); ester 3-C) | 0 | 0 | 55 | 100 | 85 (≈ 74.5 nM) |  |  |  |  |  |  |  | 
CC[C@H](C)[C@H]1NC(=O)[C@@H](NC(=O)[C@@H](CC(C)C)N(C)C(=O)[C@@H]2CCCN2C(=O)[C@H](C)OC(=O)[C@@H](N)CCC(N)=O)[C@@H](C)OC(=O)[C@H](Cc2ccc(OC)cc2)N(C)C(=O)[C@@H]2CCCN2C(=O)[C@H](CC(C)C)NC(=O)[C@@H](C)C(=O)[C@H](C(C)C)OC(=O)C[C@@H]1OC(=O)[C@@H](N)CCC(N)=O [Gln[GlnIst^2]-Didemnin B (160), Glutaminyl-glutaminyl-didemnin B] | 0 | 0 | 87 | 100 | 50 (≈ 36.5 nM) | + | + | + | +++ | 0 | 0 | 0 | 0
CC[C@H](C)[C@H]1NC(=O)[C@@H](NC(=O)[C@@H](CC(C)C)N(C)C(=O)[C@@H]2CCCN2C(=O)[C@H](C)OC(=O)[C@@H]2CCC(=O)N2)[C@@H](C)OC(=O)[C@H](Cc2ccc(OC)cc2)N(C)C(=O)[C@@H]2CCCN2C(=O)[C@H](CC(C)C)NC(=O)[C@@H](C)C(=O)[C@H](C(C)C)OC(=O)C[C@@H]1O [pGlu-Didemnin B (39), L-Pyroglutaminyl-didemnin B] ([pGlu][Lac]P[dNMeL]T[X1]LP[NMeY](Me); ester 5-C) | 94 | 100 | 100 | 100 | 0.1 (≈ 0.0817 nM) | + | +++ |  |  | 0 | 0 | 16 | 16
CC[C@H](C)[C@H]1NC(=O)[C@@H](NC(=O)[C@@H](CC(C)C)N(C)C(=O)[C@@H]2CCCN2C(=O)C(C)=O)[C@@H](C)OC(=O)[C@H](Cc2ccc(OC)cc2)N(C)C(=O)[C@@H]2CCCN2C(=O)[C@H](CC(C)C)NC(=O)[C@@H](C)C(=O)[C@H](C(C)C)OC(=O)C[C@@H]1O [Dehydrodidemnin B (6), Dehydrodidemnin B] (Pyruvoyl-P[dNMeL]T[X1]LP[NMeY](Me); ester 3-C) | 95 | 100 | 100 | 100 | 0.2 (≈ 0.18 nM) | + | +++ |  |  | 0 | 0 | 16 | 16
CC[C@H](C)[C@H]1NC(=O)[C@@H](NC(=O)[C@@H](CC(C)C)N(C)C(=O)[C@@H]2CCCN2C(=O)[C@H](C)OC(=O)[C@H](CCC(N)=O)NC(=O)OCc2ccccc2)[C@@H](C)OC(=O)[C@H](Cc2ccc(OC)cc2)N(C)C(=O)[C@@H]2CCCN2C(=O)[C@H](CC(C)C)NC(=O)[C@@H](C)C(=O)[C@H](C(C)C)OC(=O)C[C@@H]1O [Cbz-Gln-Didemnin B (161), N-Benzyloxycarbonyl-L-glutaminyl-didemnin B] (Cbz-Q[Lac]P[dNMeL]T[X1]LP[NMeY](Me); ester 5-C) | 0 | 0 | 87 | 100 | 25 (≈ 18.2 nM) | − | + | + | + | 0 | 0 | 0 | 0
